Patent US5182289A, “Heterobicyclic compounds having antiinflammatory activity” (Schering Corporation, priority 1990, dated 1993)
Where two headings read alike, the source gives them in different places. Each block holds one molecule with its values, some of them ahead of it.

Assays:
[1] = system: Reversed Passive Arthus Reaction (RPAR) in the pleural cavity; test: Reversed Passive Arthus Reaction (RPAR) in the pleural cavity: cells and fluid; format: in vivo, male rats; details: Rattus norvegicus, 4 h; for inhibition in vivo at 40 mg/kg: dose 40 mpk; for inhibition in vivo at 25 mg/kg: dose 25 mpk
Procedure: (§1) Reversed Passive Arthus Reaction (RPAR) Assay
(§2) Groups of 4 male rats were injected in the penile vein with antigen (1 mg BSA in 0.2 mL of saline per rat) and 0.5 hour later injected in the pleural cavity with antibody (1.0 mg antibody protein in the IgG fraction of rabbit anti-BSA in 0.2 mL). […] After 4 hours the animals were killed with CO2, and the pleural cavities were opened and the exudate drained into a graduated conical glass centrifuge tube containing indomethacin (1.8 ug) and nordihydroguaiaretic acid (NDGA) (15 ug) to block ex vivo metabolite synthesis. The volume of the exudate was measured. The cavity was then washed out with saline-EDTA to achieve a final volume of 5.0 mL. The number of cells were determined in a Colulter Counter. The cells were spun-down (1000×g) and the exudate supernatant was added to 4 volumes of 95% ethanol and samples were kept on ice for 30 minutes. After removal of the protein precipitate (2,500×g) the ethanol extract of the exudate was dried under N2 and then stored at -20° C. For radioimmunoassay (RIA) analysis the samples were redissolved in water to a volume of 1 mL per rat. Utilizing internally spiked samples, recovery of TXB2 (tritiated thromboxane B2) and LTE4 (tritiated leukotriene-E4) from exudates was determined to be 84±2% (SEM) and 89±2% (N=4), respectively. Exudate samples were directly assayed in duplicate with the commercial ^3 H-TXB2 RIA kit from New England Nuclear and the ^3 H-LTC4 /D4 /E4 kit from Amersham. The assay was validated using reversed-phase HPLC analysis of LTs in the standard procedure described by M. W. Musch, R. W. Bryant, C. Coscollaela, R. F. Myers and M. I. Siegel, Prostaglandins, Vol. 29, pp 405-430 (1985). Samples of ethanol exudate extract were "spiked" with ^3 H-LTs to follow HPLC purification and recovery.

5-LO = test: Reversed Passive Arthus Reaction (RPAR) in the pleural cavity: LTE-4 in exudate; format: in vivo, male rats
Procedure: as §1, §2

CO (cyclooxygenase) = test: Reversed Passive Arthus Reaction (RPAR) in the pleural cavity: TXB-2 in exudate; format: in vivo, male rats
Procedure: as §1, §2

cyclooxygenase = molecular target: T1, cyclooxygenase (Homo sapiens, UniProt P23219); test: Cyclooxygenase Assay with Human Platelets, HHT production; format: cell-based; details: for % inhibition of HHT production in human platelets at 50 µM / % inhibition of HHT production in human platelets at 15 µM: read-out: PMN Assay % Inhibition HHT
T1 construct: Cyclooxygenase Assay with Human Platelets; endogenous in cells; host or cells: human blood platelets from healthy volunteers
Procedure: Cyclooxygenase Assay with Human Platelets
Blood is collected in acid-citrate-dextrose anticoagulant by venipuncture from normal healthy volunteers who said that they were not on any medication for the previous two weeks. Platelets are isolated by the procedure of Okuma and Uchino (Blood 54:1258-1271 (1979)). In brief, blood is centrifuged at 4° C. at 200×g for 10 minutes to sediment red and white cells. The platelet rich plasma (PRP) supernatant is removed and mixed with one-tenth volume of 77 mM EDTA, pH 7.2 and prostacyclin sodium salt is added to the PRP at a final concentration of 1 nanogram per milliliter(ng/mL). The PRP is centrifuged at 1700×g, 4° C. for 15 minutes. The platelet pellet is resuspended in the HEPES buffer described in the 5-lipoxygenase section above which additionally contained 1 ng/mL prostacyclin and 0.5 mM ethylene glycolbis(B-aminoethyl ether) N,N,N',N'-tetraacetic acid (EGTA) and the suspension is recentrifuged at 1,700×g, 4° C. for 15 minutes. The pellet is resuspended in HEPES buffer containing 0.5 mM EGTA and 1.5 mM CaCl2 at a cell count of 200,000 cells/ul. Platelets (0.2 ml of suspension) are preincubated with test compounds and the ^14 C-arachidonic acid plus the calcium ionophore A23187 stimulant exactly as described for the 5-lipoxygenase assay. The cyclooxygenase product 12-hydroxyheptadecatrienoic acid (HHT) is isolated and quantitated by the HPLC system used for the 5-lipoxygenaseassay. HHT elutes from this system at about eleven minutes. Results are expressed as percent inhibition of HHT production by the test compounds versus the test vehicle alone.

5-lipoxygenase = molecular target: T2, 5-lipoxygenase (Homo sapiens, UniProt P09917); test: 5-Lipoxygenase Assay in human polymorphonuclear (PMN) leukocytes, 5-HETE production; format: cell-based
T2 construct: Human polymorphonuclear (PMN) leukocytes (neutrophils) are obtained from normal healthy volunteers; endogenous in cells; host or cells: human polymorphonuclear leukocytes (neutrophils) from blood of healthy volunteers
T2 sequence (P09917 1-674): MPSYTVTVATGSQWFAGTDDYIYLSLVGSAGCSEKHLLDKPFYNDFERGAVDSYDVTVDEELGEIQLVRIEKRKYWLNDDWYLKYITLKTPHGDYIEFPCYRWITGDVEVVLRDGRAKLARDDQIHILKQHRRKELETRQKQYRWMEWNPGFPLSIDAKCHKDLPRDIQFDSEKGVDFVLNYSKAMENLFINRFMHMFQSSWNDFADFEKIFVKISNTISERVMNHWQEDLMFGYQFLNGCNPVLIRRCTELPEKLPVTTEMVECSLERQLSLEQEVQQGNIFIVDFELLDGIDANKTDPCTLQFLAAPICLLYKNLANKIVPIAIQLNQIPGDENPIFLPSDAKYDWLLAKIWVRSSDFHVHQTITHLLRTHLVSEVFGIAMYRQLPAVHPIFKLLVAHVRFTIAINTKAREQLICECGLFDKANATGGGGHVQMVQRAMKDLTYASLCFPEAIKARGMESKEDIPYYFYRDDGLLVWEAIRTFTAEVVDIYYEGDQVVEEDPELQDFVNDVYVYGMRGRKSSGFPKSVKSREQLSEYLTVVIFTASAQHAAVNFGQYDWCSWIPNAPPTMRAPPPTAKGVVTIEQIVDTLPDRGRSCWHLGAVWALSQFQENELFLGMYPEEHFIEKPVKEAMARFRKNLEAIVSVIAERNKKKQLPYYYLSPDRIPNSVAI
Procedure: Human polymorphonuclear (PMN) leukocytes (neutrophils) are obtained from normal healthy volunteers by venipuncture and collected with heparin anticoagulant. Neutrophils are isolated by Dextran/Ficol sedimentation as described (Billah et al, J. Biol. Chem. 260, 6899-6906 (1985)). In brief, 30 ml of blood is mixed with 5 ml of dextran (Sigma) solution and kept at 37° C. for 30 min. The upper white cellrich layer is removed and 10 ml is layered on 9 ml of Ficol-Paque solution (Pharmacia) and centrifuged at 280×g for 10 min. at 5° C. The supernatant is removed and the neutrophil pellet is resuspended in HEPES buffer containing 25 mM N-2-hydroxyethylpiperazine-N^1 -2 ethanesulfonic acid(HEPES), 125 mM NaCl, 2.5 mM KCL, 0.7 mM MgCl2, 0.5 mM and 10 mM glucose at pH 7.4. The red cells in the suspension are lysed by hypotonic shock. The neutrophils are washed by centrifugation in HEPES buffer two times and finally resuspended at a concentration of 20×10^6 cells/ml in the presence of 1 mM CaCl2.
Neutrophils (0.2 ml of suspension) are preincubated with dimethylsulfoxide (DMSO) vehicle with or without test compound (1 ul) for 4 minutes then incubated for 5 minutes with ^14 C-arachidonic acid (Amersham, 59 Ci/mole) at a 9 uM final concentration, and the calcium ionophore A23187 (Calbiochem) at a 1 uM final concentration. These stimulants are added in 10 ul of water:ethanol (9:1). The reaction is stopped by addition of methanol (0.4 ml), and cellular debris is removed by centrifugation. Aliquots (100 ul) of the incubations are run on a Waters two pump high performance liquid chromatography (HPLC) system fitted with a DuPont Zorbax ODS, 5 u, 4×80 […] Reliance Cartridge column and C18 "Guard Pak". The column is initially eluted at 2 ml/min with 80 percent of the mixture water:methanol:acetic acid (46:54:0.08) containing 1 mM EDTA adjusted to pH 6.0 with ammonium hydroxide (Pump A) and 20% methanol (Pump B). At 10 minutes, a linear gradient is established. to reach 100 percent methanol (Pump B) at 27 minutes. Between 27 and 28 minutes, methanol is exchanged for the initial eluting solvent and by 35 minutes the column is reequilibrated for the next sample. The effluent is analyzed by a continuous flow radioactivity monitor (model ROMONA-D) interfaced with a Hewlett Packard Lab Automation System for quantitation of radioactive products. This includes the major 5-lipoxygenase product, 5-hydroxyeicosatetraenoic acid (5-HETE) which elutes at 20 minutes. The results with and without test compound are used to calculate percent inhibition of 5-HETE production.

[2] = read-out: RPAR-Pleural Cavity % Inhibition cells
[3] = read-out: RPAR-Pleural Cavity % Inhibition fluid

T1 sequence (P23219 24-599): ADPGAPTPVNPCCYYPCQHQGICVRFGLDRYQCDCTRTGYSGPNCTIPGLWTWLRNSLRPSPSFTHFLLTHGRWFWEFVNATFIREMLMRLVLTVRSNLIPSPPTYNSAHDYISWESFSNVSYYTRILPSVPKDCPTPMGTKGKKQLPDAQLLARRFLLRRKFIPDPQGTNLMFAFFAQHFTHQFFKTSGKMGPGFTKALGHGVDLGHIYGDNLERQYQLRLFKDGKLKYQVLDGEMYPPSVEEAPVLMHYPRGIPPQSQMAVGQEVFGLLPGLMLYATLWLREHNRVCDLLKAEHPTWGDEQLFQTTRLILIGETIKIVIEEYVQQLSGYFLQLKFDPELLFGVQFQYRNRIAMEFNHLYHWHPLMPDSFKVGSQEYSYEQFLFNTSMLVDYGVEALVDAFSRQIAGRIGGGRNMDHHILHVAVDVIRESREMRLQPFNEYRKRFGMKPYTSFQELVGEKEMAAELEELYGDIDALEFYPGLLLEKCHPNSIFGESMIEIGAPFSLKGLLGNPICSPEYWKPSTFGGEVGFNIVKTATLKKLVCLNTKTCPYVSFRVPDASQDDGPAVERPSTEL

% inhibition of HHT production in human platelets at 50 µM (cyclooxygenase): 44%
inhibition at 50 µM (5-lipoxygenase): 82%
Compound: O=C1C([S+]([O-])c2ccccc2)c2cccnc2N1c1cccc(C(F)(F)F)c1 (stereo not drawn) [Compound 13, 1,3-dihydro-3-(phenylsulfinyl)-1-(3-trifluoromethylphenyl)-2H-pyrrolo[2,3-b]pyridin-2-one]

% inhibition of HHT production in human platelets at 50 µM (cyclooxygenase): 71%
inhibition at 50 µM (5-lipoxygenase): 91%
Compound: O=C1C(Sc2ccc(Cl)cc2)c2cccnc2N1c1ccccc1 (stereo not drawn) [Compound 19, 1,3-dihydro-3-(4-chlorophenylthio)-1-phenyl-2H-pyrrolo[2,3-b]pyridin-2-one]

% inhibition of HHT production in human platelets at 50 µM (cyclooxygenase): 80%
inhibition at 50 µM (5-lipoxygenase): 90%
Compound: O=C1C(Sc2ccccc2Cl)c2cccnc2N1c1ccccc1 (stereo not drawn) [Compound 20, 1,3-dihydro-3-(2-chlorophenylthio)-1-phenyl-2H-pyrrolo[2,3-b]pyridin-2-one]

% inhibition of HHT production in human platelets at 50 µM (cyclooxygenase): 31%
inhibition at 50 µM (5-lipoxygenase): 84%
Compound: COc1ccccc1SC1C(=O)N(c2ccccc2)c2ncccc21 (stereo not drawn) [Compound 22, 1,3-dihydro-3-(2-methoxyphenylthio)-1-phenyl-2H-pyrrolo[2,3-b]pyridin-2-one]

% inhibition of HHT production in human platelets at 15 µM (cyclooxygenase; 15 μM): 52%
inhibition at 15 µM (5-lipoxygenase; 15 μM): 87%
Compound: O=C1C(Sc2ccccc2)c2cccnc2N1c1cccc(Cl)c1 (stereo not drawn) [Compound 33, 1,3-dihydro-1-(3-chlorophenyl)-3-(phenylthio)-2H-pyrrolo]

Continued, molecule first:

Compound: CC1(C)C(=O)N(c2ccccc2)c2ncccc21 [Compound 1, 1,3-dihydro-3,3-dimethyl-1-phenyl-2H-pyrrolo[2,3-b]pyridin-2-one]
inhibition in vivo at 40 mg/kg [1, 2]: 70%
inhibition in vivo at 40 mg/kg [1, 3]: 60%
RPAR-Pleural Cavity % Inhibition LTE-4 (5-LO; dose 40 mpk): 54%
RPAR-Pleural Cavity % Inhibition TXB-2 (CO (cyclooxygenase); dose 40 mpk): 54%

Compound: CC1(C)C(=O)N(c2ccc(Cl)cc2)c2ncccc21 [Compound 2, 1-(4-chlorophenyl)-1,3-dihydro-3,3-dimethyl-2H-pyrrolo[2,3-b]pyridin-2-one]
inhibition in vivo at 25 mg/kg [1, 2]: 73%
inhibition in vivo at 25 mg/kg [1, 3]: 83%
RPAR-Pleural Cavity % Inhibition LTE-4 (5-LO; dose 25 mpk): 87%
RPAR-Pleural Cavity % Inhibition TXB-2 (CO (cyclooxygenase); dose 25 mpk): 78%

Compound: CC(C)N1C(=O)C(Sc2ccccc2)c2cccnc21 (stereo not drawn) [Compound 14, 1,3-dihydro-1-(methylethyl)-3-(phenylthio)-2H-pyrrolo[2,3-b]pyridin-2-one]
% inhibition of HHT production in human platelets at 50 µM (cyclooxygenase): 17%
inhibition at 50 µM (5-lipoxygenase): 63%

Compound: CC1(Sc2ccccc2)C(=O)N(c2ccccc2)c2ncccc21 (stereo not drawn) [Compound 16, 1,3-dihydro-3-methyl-1-phenyl-3-(phenylthio)-2H-pyrrolo[2,3-b]pyridin-2-one]
% inhibition of HHT production in human platelets at 50 µM (cyclooxygenase): 2%
inhibition at 50 µM (5-lipoxygenase): 68%

Compound: CN1C(=O)C(Sc2ccccc2)c2cccnc21 (stereo not drawn) [Compound 17, 1,3-dihydro-1-methyl-3-(phenylthio)-2H-pyrrolo[2,3-b]pyridin-2-one]
% inhibition of HHT production in human platelets at 50 µM (cyclooxygenase): 21%
inhibition at 50 µM (5-lipoxygenase): 63%

Compound: Cc1c(Cl)cccc1N1C(=O)C(Sc2ccccc2)c2cccnc21 (stereo not drawn) [Compound 18, 1,3-dihydro-1-(3-chloro-2-methylphenyl)-3-(phenylthio)-2H-pyrrolo[2,3-b]pyridin-2-one]
% inhibition of HHT production in human platelets at 50 µM (cyclooxygenase): 64%
inhibition at 50 µM (5-lipoxygenase): 86%

Compound: O=C1N(Cc2ccccc2)c2ncccc2C1(Sc1ccccc1)Sc1ccccc1 [Compound 26, 1,3-dihydro-3,3-(diphenylthio)-1-(phenylmethyl)-2H-pyrrolo[2,3-b]pyridin-2-one]
% inhibition of HHT production in human platelets at 15 µM (cyclooxygenase; 15 μM): 11%
inhibition at 15 µM (5-lipoxygenase; 15 μM): 96%

Compound: CC(=O)OCCSC1(C(C)=O)C(=O)N(c2ccccc2)c2ncccc21 (stereo not drawn) [Compound 28, 1,3-dihydro-3-[2-(acetoxy)-ethylthio)-3-(1-oxoethyl)-1-phenyl-2H-pyrrolo[2,3-b]pyridin-2-one]
% inhibition of HHT production in human platelets (cyclooxygenase; 15 μM): 29%
% inhibition of HHT production in human platelets at 15 µM (cyclooxygenase; 15 μM): 35%
PMN Assay % Inhibition 5-HETE (5-lipoxygenase; 15 μM): 96%
inhibition at 15 µM (5-lipoxygenase; 15 μM): 80%

Compound: O=C1C(Sc2ccccc2)c2cccnc2N1c1ccc(Cl)c(Cl)c1 (stereo not drawn) [Compound 34, 1,3-dihydro-1-(3,4-dichlorophenyl)-3-(phenylthio)[2,3-b]pyridin-2-one]
% inhibition of HHT production in human platelets at 15 µM (cyclooxygenase; 15 μM): 54%
inhibition at 15 µM (5-lipoxygenase; 15 μM): 99%

Compound: COc1c(Sc2ccccc2)c2cccnc2n1-c1ccccc1 [Compound 35, 2-methoxy-1-phenyl-3-(phenylthio)-1H-pyrrolo[2,3-b]pyridine]
% inhibition of HHT production in human platelets (cyclooxygenase; concentration not given): 55%
inhibition of 5-HETE in the PMN assay (5-lipoxygenase; concentration not given): 80%
